Where two headings read alike, the source gives them in different places.
Tests used:
rat prostate = test: Systemic antiandrogenic activity in immature male rats (castrated, DHT implant), prostate weight; details: po, 168 h, 0.5 mg/animal per os once daily 7 days, % efficacy relative to inhibition by flutamide, read-out: RAT (in vivo) (systemic) Prostate Inh. % inh. (0.5 mg, per os)
Description: Column 5 represents the % of antiandrogenic efficacy in rat prostate, relatively to the percentage of inhibition of flutamide calculated by the formula:
(§1) % efficacy versus Flu=100×% inhib (compound)/% inhib (Flu).
(§2) Where the percentage of inhibition (% inhib) is calculated by the following formula:
% lnhib=100−[W (compound)−W (control)/W (DHT)−W (control)]×100.
W is the weight of the prostate.
(§3) C Systemic antiandrogenic activity (immature male rats)
(§4) 1. Animals Immature male rats (Crl:CD(SD)Br) 22 to 24-day old were obtained from Charles-River, Inc. (St-Constant, Quebec, Canada) and housed up to 5 per cage in plastic bins in a temperature (23±1° C.)—and light (12 h light/day, lights on at 7h15)—controlled environment. The rats were fed rodent chow and tap water ad libitum. The day following their arrival, the animals were orchidectornized (CX) under Isoflurane anesthesia via scrotal route and randomly assigned to groups of 5 animals. One silastic implant of dihydrotestosterone (DHT; length of implant: 1 cm) was inserted subcutaneously in the dorsal area of animals at the time of orchidectomy. One group of 5 animals was CX only as control (no DHT implant inserted).
(§5) 2. Treatments To evaluate the antiandrogenic activity, tested compounds were administered orally by gavage once daily at a dose of 0.5 mg/animal for 7 days (SD 1 to 7). Compounds were solubilized (when possible) in dimethylsulfoxide (DMS, 10% final concentration) and administered as suspension in 0.4% methylcellulose. Rats in CX control and CX+DHT control groups received the vehicle alone during the 7-day period. One group of animals received the antiandrogen Flutamide as reference. The animals were killed by cervical dislocation under isoflurane anesthesia on the 8th morning following castration. The ventral prostate and seminal vesicles were rapidly dissected and weighed.
(§6) 3. Calculations and Statistical Analysis The percentage of inhibition (% inhib) is calculated by the following formula:
(§7) % Inhib=100−[W (compound)−W (control)/W (DHT)−W (control)]×100.
(§8) This percentage is reported as % of efficacy, relatively to the percentage of inhibition of flutaride calculated by the formula: % efficacy versus Flu=100×% inhib (compound)/% inhib (Flu).
(§9) W is the weight of the prostate or the seminal vesicle.

[1] = system: Hamster's ear sebaceous glands; test: Topical antiandrogenic activity, histomorphometry of the ear sebaceous glands in the hamster; format: in vivo, Male Golden Syrian hamster; details: Mesocricetus auratus, 336 h, once daily, 14 days, sebaceous gland area, read-out: Antiandrogenic activity in Hamster's sebaceous glands Inh. Vs Cx (%); for inhibition in vivo at 0.001 mg: dose 1 μg applied topically on left ear of intact male hamster; for inhibition in vivo at 0.003 mg: dose 3 μg applied topically on left ear of intact male hamster; for inhibition in vivo at 0.01 mg: dose 10 μg applied topically on left ear of intact male hamster
Text: Column 3 represents the dose of antiandrogenic compounds applied on the left ear of the intact male hamster.
Column 4 represents the relative inhibition in % of the area of the sebaceous gland of the left ear versus control hamster. Higher values approaching the effect of castration are preferable
The Antiandrogenic activity of antiandrogenic compounds has been measured using a Histomorphometry assay of the Ear Sebaceous Glands in the Hamster
1. Animals Male Golden Syrian, Hamster (SYR) of 110-120 g were obtained from Harlan Sprague Dawlay (Madison, USA) and housed up to 2 per cage in plastic cages in a temperature (22±3° C.) and light (12 h light/day, lights on at 7 h 15) in a controlled environment. The hamsters were fed with Certified Rodent Diet 5002 (pellet) and tap water ad libitum. The animals were acclimated for at least five days before the beginning of the study. Animals were randomly assigned to groups of eight hamsters. One group of hamsters was castrated under isoflurane-induced anesthesia on the day of dosing initiation (SD 1) and used as control group.
2. Treatments To evaluate the antiandrogenic activity, tested compounds were applied topically on the inner part of the left ear, once daily, for 14 days. Ten μL solution of acetone: ethanol: propylene Glycol (1:1:2; v:v:v) containing 0.1, 0.3 or 1.0 mg/mL of tested compound was carefully applied onto a region between the two cartilage ridges of the ventral surface of left pinna. For animals in the castrated and intact control groups ten-μL vehicle was applied onto the left ear. No solution will be applied on the right ear for any animals of the study.
3. Postmortem Observations and Measurements On Study Day 15, the hamsters were euthanized by cervical dislocation under isoflurane anesthesia. The left and right ears were collected attached together by the head skin, flat fixed on a paper and were immersed in 10% neutral buffered formalin. From the flat fixed ear and using paper puncture that makes a hole of 6 mm, the region where solution was applied was collected from each ear. Using a scalpel blade, the collected 6 mm round ear specimen was cut in the middle between the two cartilage ridges. The two equal parts of the ear round specimen were embedded in paraffin. After processing the tissue, the two parts were vertically embedded parallel to each other in a way that the flat 6 mm area was facing out. From each paraffin block, one section (5 μm thick) was cut and collected on a glass slide. Thus, each slide contained two elongated sections of 6 mm length. Slides were stained with hematoxylin and eosin.
4. Analysis of Sebaceous Gland Area Using the video camera and objective lens number X5 of the light microscope, the resulting field that appears on the screen has a length of 0.953 mm. From the glass slide, when we have examined the first 6 mm long section from the left to the right, the first and second fields were ignored and the third and fourth fields were captured for analysis by the image analyzer. Each field has the length of 0.953 mm. With the help of the screen mouse, the sebaceous glands within the whole field length (0.953mm) were marked. Also, an area with the length of the whole field and the height between stratum granulosum and the upper edge of the cartilage was drawn.
The image analyzer calculated the total area of the sebaceous glands (μm^2) in each examined field. We also obtained the area, which has the length of 0.953 mm and the height between stratum granulosum and the cartilage. In addition, the percentage of the area occupied by the glands was obtained. Thus, for each ear, two sections were cut and two fields from each section were analyzed. The total of the four readings was averaged and the mean standard of error calculated by the image analyzer. The results were expressed in μm^2 as the total surface of glands per field and also as percentage of the area occupied by the glands.

[2] = system: Shionogi mouse mammary carcinoma cells; test: In vitro androgenic/antiandrogenic activity, DHT-stimulated Shionogi cell number; format: cell-based; details: for Shionogis (In Vitro) VS OH-FLU (ratio of Ki of hydroxyflutamide versus tested compound): OH-Flu = 1, DHT-stimulated cell number, higher values preferable
rat seminal vesicle = test: Systemic antiandrogenic activity in immature male rats (castrated, DHT implant), seminal vesicle weight; details: po, 168 h, 0.5 mg/animal per os once daily 7 days, % efficacy relative to inhibition by flutamide, read-out: RAT (in vivo) (systemic) SV Inh % inh. (0.5 mg, per os)
Description: Column 6 represents the % of antiandrogenic efficacy on the rat seminal vesicle, relative to the percentage of inhibition by flutamide calculated by the formula:
as §1, §2, §7
W is the weight of the seminal vesicle.
as §3, §4, §5, §6, §8, §9

[3] = Mus musculus, read-out: Shionogis (In Vitro) IC50(nM), inhibition of DHT-stimulated cell number, 10-12 days

Row | IC50 ([2]; Mus musculus, inhibition of DHT-stimulated cell number, 10-12 days, read-out: Shionogis (In Vitro) IC50) [nM] | IC50 ([2]; inhibition of DHT-stimulated cell number, 10-12 days, read-out: Shionogis (In Vitro) IC50) [nM] | Structure (SMILES) | inhibition in vivo at 0.5 mg (rat prostate) [%] | inhibition in vivo at 0.001 mg [1] [%] | inhibition in vivo at 0.003 mg [1] [%] | inhibition in vivo at 0.01 mg [1] [%] | inhibition in vivo at 0.5 mg (rat seminal vesicle) [%] | IC50 [2, 3] [nM] | Shionogis (In Vitro) VS OH-FLU (ratio of Ki of hydroxyflutamide versus tested compound) [2]
1 | 11 | 8.6 | C[C@@H]1CCC2C3CCc4c(C#N)cccc4C3CC[C@]2(C)[C@H]1O (stereo partly shown) [EM-3803] | 0 | 33.3 | 51.8 | 37 | 30 | – | –
2 | – | – | CC[C@@H]1CC2C3CCc4c(C#N)cccc4C3CC[C@]2(C)[C@H]1O (stereo partly shown) [EM-3852] | 0 | – | 66.6 | 70.4 | 0 | 16.1 | 8.7
3 | – | – | CC#Cc1ccc2c(c1C#N)CCC1C2CC[C@]2(C)C(=O)CCC12 (stereo partly shown) [EM-4142] | 0 | 18.5 | 18.5 | 37 | 22 | 29 | 3.7
4 | – | – | CC(C)[C@H]1CC2C3CCc4c(C#N)cccc4C3CC[C@]2(C)[C@H]1O (stereo partly shown) [EM-4157] | 0 | 18.5 | 29.6 | 40.7 | 55 | 33 | 5
5 | – | – | C#Cc1ccc2c(c1)CCC1C2CC[C@@]2(C)C1C[C@@H](C)[C@@H]2O (stereo partly shown) [EM-5035] | 11 | 3.7 | 11.1 | 51.9 | 4 | 66 | 1.6

Source: patent US20040224935A1, “Topical antiandrogenic steroids” (Endorecherche, Inc., priority 2003, published 2004)
